{"source": "patent US20130303539A1", "about": "“COMPOUNDS WITH TRPV4 ACTIVITY, COMPOSITIONS AND ASSOCIATED METHODS THEREOF” (priority 2012, published 2013)", "key": {"[1]": {"tested_on": "retinal neurons (RGCs) and glia (Müller cells)", "test": "Hypotonic stimuli: cell swelling (change in cell area) and [Ca++]i", "assay_type": "cell-based", "source_text": "FIG. 18A illustrates the effect of hypotonic stimuli on cell swelling as measured by change in cell area. Hypotonic stimuli were generated by replacing extracellular sodium levels to lower osmolarity from 300 mOsm to 190 mOsm."}, "[2]": {"target": "T1, TRPV4 (Mus musculus, UniProt Q9EPK8)", "T1 sequence (Q9EPK8 whole entry)": "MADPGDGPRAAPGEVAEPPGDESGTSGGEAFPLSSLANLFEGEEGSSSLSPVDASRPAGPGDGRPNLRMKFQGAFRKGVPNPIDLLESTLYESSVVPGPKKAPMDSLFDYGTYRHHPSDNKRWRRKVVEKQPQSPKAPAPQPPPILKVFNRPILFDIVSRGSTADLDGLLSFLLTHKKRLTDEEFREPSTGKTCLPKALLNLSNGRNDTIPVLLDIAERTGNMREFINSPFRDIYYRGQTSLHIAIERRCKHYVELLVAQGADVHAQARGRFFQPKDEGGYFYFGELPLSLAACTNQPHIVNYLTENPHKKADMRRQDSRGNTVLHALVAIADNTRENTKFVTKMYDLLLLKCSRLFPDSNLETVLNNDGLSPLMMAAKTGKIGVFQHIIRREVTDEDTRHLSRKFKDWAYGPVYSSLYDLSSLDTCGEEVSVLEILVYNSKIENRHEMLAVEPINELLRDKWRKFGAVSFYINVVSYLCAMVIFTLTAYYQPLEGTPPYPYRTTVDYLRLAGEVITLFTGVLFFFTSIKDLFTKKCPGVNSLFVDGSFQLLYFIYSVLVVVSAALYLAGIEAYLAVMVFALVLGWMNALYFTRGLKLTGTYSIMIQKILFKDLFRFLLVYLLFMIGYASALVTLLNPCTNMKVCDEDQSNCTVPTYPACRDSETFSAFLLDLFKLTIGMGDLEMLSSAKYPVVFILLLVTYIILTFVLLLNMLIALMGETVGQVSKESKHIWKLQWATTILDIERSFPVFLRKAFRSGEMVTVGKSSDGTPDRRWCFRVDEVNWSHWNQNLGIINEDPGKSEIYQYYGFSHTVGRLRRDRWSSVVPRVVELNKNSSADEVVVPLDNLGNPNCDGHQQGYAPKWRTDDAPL", "test": "TRPV4 agonist GSK-evoked [Ca++]i in retinal Müller glial cells", "assay_type": "cell-based", "set-up": "endogenous in cells; host or cells: retinal Müller glial cells"}, "[3]": {"tested_on": "retinal ganglion cells", "test": "RGC density in retinal wholemounts of the MB mouse model", "assay_type": "in vivo", "procedure": "FIG. 2 confirms that the mouse model for glaucoma causes RGC degeneration. Specifically, microbeads (MBs) were injected into the anterior chamber of a mouse eye. The MBs increase intraocular IOP above 15 mm Hg by blocking outflow of the aqueous humor within the anterior chamber of the eye. MBs were reinjected as needed to maintain a high IOP, typically one injection every two weeks. Contralateral eyes were injected intraocularly with the vehicle PBS (phosphate buffered saline) as controls. […] IOP levels were measured at least twice weekly before and after intraocular injections. After injections, mice recovered for 48 hours before IOP measurements resumed. Following 4 or 8 weeks of IOP elevation, mice were intracardially perfused with 4% paraformaldehyde in 1×PBS to fix the retinas. Retinas were then removed and processed for immunohistochemistry (IHC). Whole retinas were rinsed with 1×PBS three times at room temperature then incubated in blocking buffer (1×PBS+1% BSA). […] The density of RGCs was imaged with a confocal microscope (Zeiss LSM 510) and quantified by counting NeuN-, CFP- and/or Tuj-1—labeled somata in the RGC layer of the retinal wholemount preparation. […]\nRGD density was quantified in retinas isolated from TuJ-1^+ mice and transgenic Thy1-CRP^+ transgenic mice that had been injected with either MBs or vehicle (PBS) then dosed with either compound 1 or vehicle (PBS). […] TuJ-1 was quantified by immunohistochemistry using a Tuj-1-specific antibody conjugated to a fluorescent Alexa 488 or Alexa 594 secondary antibody. […] For fluorescence immunocytochemistry, retinal wholemounts were washed in PBS, then placed for 30 min. to 1 hour in blocking solution (10 ml PBS, 30 μL Triton-X 100, 100 mg bovine serum albumin, 100 μL 10% w/v Na azide solution) in OCT (Ted Pella, Redding, Pa.). […]"}, "[4]": {"tested_on": "retinal ganglion cells", "test": "Hypotonic swelling-induced calcium influx in retinal ganglion cells (Fura-2)", "assay_type": "cell-based", "source_text": "Cells were labeled with fluorescent calcium indicator dye Fura-2 and exposed to hypotonic solutions in which extracellular sodium was replaced by the osmotically inert substance mannitol, as described in […] et al. (J. Neurosci. 2011 May 11; 31(19):7089-101; PMID 21562271)."}, "[5]": {"target": "T1, TRPV4", "test": "AGB cation influx into retinal cells (anti-AGB antibody)", "assay_type": "cell-based", "set-up": "these two cell types express TRPV4 channels in the mouse retina; from tissue; host or cells: mouse retina", "conditions": "mouse retina", "procedure": "FIG. 16 illustrates the effect of the TRPV4 agonist GSK on cation influx into mouse retinal cells of the mouse retina. The influx was determined using the anti-AGB antibody, as described by Marc RE (J Comp Neurol 407(1): 47-64, 1999). AGB is a membrane permeant cation that can flow through most known cation channels. Using an anti-AGB antibody, it can be determined where the cation flux occurs and, therefore, which cells are activated."}, "[6]": {"tested_on": "retinal ganglion cells", "test": "In vivo intraocular injection of TRPV4 agonist GSK, NeuN+ RGC count", "conditions": "intraocular GSK, 48 hours", "procedure": "In this experiment, GSK (100-300 nM) was injected intraocularly with a Hamilton syringe. Retinas were isolated after 48 hours, fixed and labeled with the RGC marker antibody NeuN. NeuN-immunopositive somata in the ganglion cell layer, shown in the panel on the right, were counted. The bar graph represents quantification of NeuN^+ cells in the indicated experimental groups."}}, "data": [{"smiles": "Cc1c(C(=O)Nc2cccc(C(F)(F)F)c2)cc(-c2ccccc2)n1CCCN1CCOCC1", "note": "[Compound 1, N-(3-(trifluoromethyl)phenyl)-2-methyl-1-(3-morpholinopropyl)-5-phenyl-1H-pyrrole-3-carboxamide]", "values": [{"measurement": "hypotonic stimuli-induced increase in [Ca++]i (FIG. 18B)", "setting": "[1]; hypotonic stimuli", "result": "inhibited"}, {"measurement": "cell swelling (change in cell area)", "setting": "[1]; osmolarity lowered from 300 mOsm to 190 mOsm", "result": "prevented hypotonic stimuli-mediated cell swelling to the same extent as BAPTA-AM"}, {"measurement": "block of GSK-evoked [Ca++]i increase", "setting": "[2]", "result": "this effect is blocked"}, {"measurement": "reversibility of the effect on glial calcium levels", "setting": "[2]", "result": "reversible"}, {"measurement": "washout by superfusion with control saline", "setting": "[2]", "result": 10, "unit": "min"}, {"measurement": "TuJ-1+ cells in the alpha, beta and omega regions", "setting": "[3]; MB- or PBS-injected eyes, IP dosing", "result": "rescues RGCs across all regions of the retina"}, {"measurement": "CFP+ cells in the alpha, beta and omega regions", "setting": "[3]; Thy1-CFP transgenic mice, MB- or PBS-injected eyes, IP dosing", "result": "rescues RGCs across all regions of the retina"}, {"measurement": "density of RGCs (TuJ-1+ cells and Thy1:CFP+ cells)", "setting": "[3]; after 8 weeks of increased IOP, MB-injected mice", "result": "RGC loss was rescued"}, {"measurement": "effect of cell swelling on intracellular calcium levels in ganglion cells", "setting": "[4]; 140 mOsm saline", "result": "blocked"}, {"measurement": "pressure-dependent influx of calcium in RGCs (FIG. 17C)", "setting": "[4]; hypotonic solutions", "result": "prevents the pressure-dependent influx of calcium in RGCs"}, {"measurement": "antagonism of the effect of GSK on AGB cation influx", "setting": "[5]", "result": "strongly antagonized"}, {"measurement": "block of GSK-induced RGC degeneration", "setting": "[6]", "result": "blocked"}]}]}
